Laboratory results reported in the NIST ThermoML archive (doi:10.1016/j.jct.2012.03.034).

Test: xn = mol fraction of the nth substance listed
Conditions: 101 kPa, Liquid; for speed of sound: Linear variable-path acoustic interferometer; for mass density: Vibrating tube method; for viscosity: dual vibrating plate viscometer, AandD Co. Ltd Model SV-10

CC(=O)[O-].CC[NH2+]CC [diethylammonium acetate] + CN1CCCC1=O
Conditions	mass density [kg/m3]	speed of sound [m/s]	viscosity [mPa·s]
298.15 K, x1 = 0.0234	1026.53	1570	1.83
298.15 K, x1 = 0.0473	1027.19	1570	1.82
298.15 K, x1 = 0.1188	1028.41	1576	2.26
298.15 K, x1 = 0.1668	1029.09	1575	2.67
298.15 K, x1 = 0.2393	1029.73	1563	3.57
298.15 K, x1 = 0.3616	1030.18	1527	5.62
298.15 K, x1 = 0.411	1030.19	1510	6.49
298.15 K, x1 = 0.4856	1029.95	1487	7.94
298.15 K, x1 = 0.6115	1028.88	1458	10.53
298.15 K, x1 = 0.7391	1027.18	1454	13.14
298.15 K, x1 = 0.8686	1024.96	1486	15.33
298.15 K, x1 = 0.9493	1023.14	1539	16.26
298.15 K, x1 = 0.9758	1022.3	1562	16.41
298.15 K, x1 = 1	1021.41	1608	16.36
303.15 K, x1 = 0.0234	1024.14	1555	1.6
303.15 K, x1 = 0.0473	1024.34	1557	1.66
303.15 K, x1 = 0.1188	1025.34	1563	2.03
303.15 K, x1 = 0.1668	1025.85	1565	2.34
303.15 K, x1 = 0.2393	1026.2	1556	3.09
303.15 K, x1 = 0.3616	1026.29	1523	4.89
303.15 K, x1 = 0.411	1026.22	1508	5.6
303.15 K, x1 = 0.4856	1025.78	1488	6.88
303.15 K, x1 = 0.6115	1024.47	1460	9.13
303.15 K, x1 = 0.7391	1022.47	1458	11.3
303.15 K, x1 = 0.8686	1019.99	1494	13.05
303.15 K, x1 = 0.9493	1018.04	1552	13.74
303.15 K, x1 = 0.9758	1017.29	1574	13.82
303.15 K, x1 = 1	1016.52	1612	13.64
308.15 K, x1 = 0.0234	1019.65	1531	1.48
308.15 K, x1 = 0.0473	1019.91	1536	1.67
308.15 K, x1 = 0.1188	1020.3	1546	1.87
308.15 K, x1 = 0.1668	1020.67	1548	2.15
308.15 K, x1 = 0.2393	1020.89	1542	2.84
308.15 K, x1 = 0.3616	1020.97	1514	4.45
308.15 K, x1 = 0.411	1020.77	1502	5.1
308.15 K, x1 = 0.4856	1020.41	1484	6.24
308.15 K, x1 = 0.6115	1019.23	1462	8.23
308.15 K, x1 = 0.7391	1017.4	1463	10.18
308.15 K, x1 = 0.8686	1015.03	1501	11.58
308.15 K, x1 = 0.9493	1013.14	1555	12.1
308.15 K, x1 = 0.9758	1012.47	1580	12.16
308.15 K, x1 = 1	1011.87	1616	11.83
313.15 K, x1 = 0.0234	1014.97	1527	1.37
313.15 K, x1 = 0.0473	1015.32	1532	1.44
313.15 K, x1 = 0.1188	1015.77	1544	1.75
313.15 K, x1 = 0.1668	1016.03	1547	1.98
313.15 K, x1 = 0.2393	1016.53	1543	2.61
313.15 K, x1 = 0.3616	1016.79	1520	4.05
313.15 K, x1 = 0.411	1016.77	1509	4.66
313.15 K, x1 = 0.4856	1016.52	1494	5.67
313.15 K, x1 = 0.6115	1015.76	1473	7.42
313.15 K, x1 = 0.7391	1014.43	1477	9.06
313.15 K, x1 = 0.8686	1012.59	1515	10.26
313.15 K, x1 = 0.9493	1010.98	1567	10.62
313.15 K, x1 = 0.9758	1010.43	1592	10.57
313.15 K, x1 = 1	1010.08	1617	10.02
